12 molecules from US9670147B2, “Antioxidant inflammation modulators: oleanolic acid derivatives with amino and other modifications at C-17” (REATA PHARMACEUTICALS, INC., priority 2008, dated 2017) can be followed below.

One assay relates to TrxR1. Briefly: Nrf2 target gene induction in MDA-MB-435 cells, qPCR: TrxR1. The class given is cell-based, human. The settings on record: 16 hours. Here is the method:
(§1) FIGS. 44, 46 and 47—Induction of HO-1, TrxR1 and γ-GCS. FIGS. 44A-C, 46A-C, 47A-C: MDA-MB-435 human melanoma cells were treated with vehicle (DMSO) or the indicated compounds (400 nM) for 16 hours. HO-1, thioredoxin reductase-1 (TrxR1), and γ-glutamylcysteine synthetase (γ-GCS) mRNA levels were quantified using qPCR and were normalized relative to a DMSO-treated sample run in parallel. Values are averages of duplicate wells. FIGS. 44D, 46D, 47D: MDA-MB-435 cells were treated with vehicle (DMSO) or the indicated compounds at 400 nM for 16 hours. HO-1, TrxR1 and actin protein levels were assayed by immunoblotting.
(§2) FIG. 45. Induction of HO-1, TrxR1 and γ-GCS. FIGS. 45 A-C: MDA-MB-435 cells were treated with vehicle (DMSO) or the indicated compounds at 160 nM for 16 hours. HO-1, TrxR1, and γ-GCS mRNA levels were quantified by qPCR and were normalized relative to a DMSO-treated sample run in parallel. Values are averages of duplicate wells. FIGS. 44D, 46D, 47D: MDA-MB-435 cells were treated with vehicle (DMSO) or the indicated compounds at 160 nM for 16 hours. HO-1, TrxR1 and actin protein levels were assayed by immunoblotting.
(§3) MDA-MB-435 human melanoma cells were treated with vehicle (DMSO) or the indicated compounds and concentrations for 16 hours. HO-1, thioredoxin reductase-1 (TrxR1), γ-glutamylcysteine synthetase (γ-GCS), and ferritin heavy chain mRNA levels were quantified using qPCR and were normalized relative to a DMSO-treated sample run in parallel. Values are averages of duplicate wells. Primer sequences are as follows.
(Real-time PCR tracks product formation cycle by cycle.)

In assay [1] the test system is IFNγ-induced NO production in RAW264.7 macrophages. The experiment in a line: Suppression of IFNγ-induced NO production (Griess reagent). It counts as cell-based, mouse. Particulars: Mus musculus, 2 h pre-treatment, then 20 ng/ml IFNγ for 24 hours. On the procedure:
(§4) FIGS. 1-34. Inhibition of NO Production. RAW264.7 macrophages were pre-treated with DMSO or drugs at various concentrations (nM) for 2 hours, then treated with 20 ng/ml IFNγ for 24 hours. NO concentration in media was determined using the Griess reagent system; cell viability was determined using WST-1 reagent. FIGS. 49-52. Inhibition of NO Production. RAW264.7 macrophages were pre-treated with DMSO or drugs at various concentrations (nM) for 2 hours, then treated with 20 ng/ml IFNγ for 24 hours. NO concentration in media was determined using the Griess reagent system; cell viability was determined using WST-1 reagent. RAW264.7 macrophages were pre-treated with DMSO or drugs for 2 hours, then treated with recombinant mouse IFNγ (Sigma) for 24 hours. NO concentration in media was determined using the Griess reagent system (Promega). Cell viability was determined using WST-1 reagent (Roche).

Another assay relates to HO-1. Briefly: Nrf2 target gene induction in MDA-MB-435 cells, qPCR: HO-1. Particulars: 16 hours. The class given is cell-based, human. Here is the method: FIG. 43. Induction of HO-1. FIGS. 43A and 43B: MDA-MB-435 human melanoma cells were treated with vehicle (DMSO) or the indicated compounds and concentrations for 16 hours. HO-1 mRNA levels were quantified using qPCR and were normalized relative to a DMSO-treated sample run in parallel. Values are averages of duplicate wells. FIG. 43C: MDA-MB-435 cells were treated with vehicle (DMSO) or the indicated compounds at 400 nM for 16 hours. HO-1, TrxR1 and actin protein levels were assayed by immunoblotting. Actin served as a loading control.
as §1, §2, §3

A further assay relates to γ-GCS. Briefly: Nrf2 target gene induction in MDA-MB-435 cells, qPCR: γ-GCS. The class given is cell-based, human. Particulars: 16 hours. Here is the method: as §1, §2, §3
The next assay deals with RAW264.7 macrophages. Briefly: Cell viability, WST-1 reagent. It counts as cell-based, mouse. Particulars: Mus musculus, 2 h pre-treatment, then 20 ng/ml IFNγ for 24 hours. Here is the method: as §4
(Tetrazolium assays rely on reduction of a dye to a coloured formazan, in cell work by metabolically active cells.)

In the next assay the test system is iNOS. Briefly: iNOS Western blot in RAW264.7 mouse macrophages. It counts as cell-based. The settings on record: compounds at 300 nM for 2 hours, 24 hour induction by IFNγ, read-out: iNOS suppr. WB. Here is the method: FIGS. 38-40. iNOS Western Blot in RAW264.7 mouse macrophages. Cells were pretreated by compounds at 300 nM for 2 hours, followed by 24 hour induction by IFNγ (20 ng/ml). […]

Structures are written as SMILES. Where only a bound is given, the exact number is not on record here.

Consider `CNC(=O)N[C@]12CCC(C)(C)C[C@H]1[C@H]1C(=O)C=C3[C@@]4(C)C=C(C#N)C(=O)C(C)(C)[C@@H]4CC[C@@]3(C)[C@]1(C)CC2` [Compound 63172, 1-((4aS,6aR,6bS,8aR,12aS,14aR,14bS)-11-cyano-2,2,6a,6b,9,9,12a-heptamethyl-10,14-dioxo-1,2,3,4,4a,5,6,6a,6b,7,8,8a,9,10,12a,14,14a,14b-octadecahydropicen-4a-yl)-3-methylurea], for which the TrxR1 induction with TrxR1 (160 nM) was 43% of induction observed for RTA 402. Besides, the IC50 (usually the concentration that inhibits the measured activity by half) in assay [1] was 30 nM; with RAW264.7 macrophages it was over 200 nM. In addition, the HO-1 induction with HO-1 (160 nM) is 4% of induction observed for RTA 402. Besides, the γ-GCS induction in the assay with γ-GCS (160 nM) is given as 27% of induction observed for RTA 402.

`C=CCOC(=O)N[C@]12CCC(C)(C)C[C@H]1[C@H]1C(=O)C=C3[C@@]4(C)C=C(C#N)C(=O)C(C)(C)[C@@H]4CC[C@@]3(C)[C@]1(C)CC2` [Compound 63186, allyl-(4aS,6aR,6bS,8aR,12aS,14aR,14bS)-11-cyano-2,2,6a,6b,9,9,12a-heptamethyl-10,14-dioxo-1,2,3,4,4a,5,6,6a,6b,7,8,8a,9,10,12a,14,14a,14b-octadecahydropicen-4a-ylcarbamate]: the IC50 in assay [1] is 3 to 6 nM; in the assay on RAW264.7 macrophages, 100 nM.

For `CC1(C)CC[C@]2(NS(=O)(=O)c3cccs3)CC[C@]3(C)[C@H](C(=O)C=C4[C@@]5(C)C=C(C#N)C(=O)C(C)(C)[C@@H]5CC[C@]43C)[C@@H]2C1` [Compound 63187, N-((4aS,6aR,6bS,8aR,12aS,14aR,14bS)-11-cyano-2,2,6a,6b,9,9,12a-heptamethyl-10,14-dioxo-1,2,3,4,4a,5,6,6a,6b,7,8,8a,9,10,12a,14,14a,14b-octadecahydropicen-4a-yl)thiophene-2-sulfonamide], the TrxR1 induction in the assay with TrxR1 (400 nM) is recorded as 90% of induction observed for RTA 402. The IC50 in assay [1] is 2 to 5 nM; in the assay with RAW264.7 macrophages, 100 nM. In the assay with HO-1 (400 nM), the HO-1 induction is on record as 32% of induction observed for RTA 402. In the assay with γ-GCS (400 nM), the γ-GCS induction is 90% of induction observed for RTA 402. The inhibition at 0.3 µM with iNOS was over 90%.

As for `CC1(C)CC[C@]2(NC(=O)N3CCOCC3)CC[C@]3(C)[C@H](C(=O)C=C4[C@@]5(C)C=C(C#N)C(=O)C(C)(C)[C@@H]5CC[C@]43C)[C@@H]2C1` [Compound 63188, N-((4aS,6aR,6bS,8aR,12aS,14aR,14bS)-11-cyano-2,2,6a,6b,9,9,12a-heptamethyl-10,14-dioxo-1,2,3,4,4a,5,6,6a,6b,7,8,8a,9,10,12a,14,14a,14b-octadecahydropicen-4a-yl)morpholine-4-carboxamide], the IC50 is 27 nM in assay [1] and over 200 nM in the assay on RAW264.7 macrophages.

`CCC(=O)N[C@]12CCC(C)(C)C[C@H]1[C@H]1C(=O)C=C3[C@@]4(C)C=C(C#N)C(=O)C(C)(C)[C@@H]4CC[C@@]3(C)[C@]1(C)CC2` [Compound 63189, N-((4aS,6aR,6bS,8aR,12aS,14aR,14bS)-11-cyano-2,2,6a,6b,9,9,12a-heptamethyl-10,14-dioxo-1,2,3,4,4a,5,6,6a,6b,7,8,8a,9,10,12a,14,14a,14b-octadecahydropicen-4a-yl)propionamide]: the IC50 in assay [1] was 7.5 nM; with RAW264.7 macrophages, 75 nM.

Regarding `CC1(C)CC[C@]2(NCC#N)CC[C@]3(C)[C@H](C(=O)C[C@@H]4[C@@]5(C)C=C(C#N)C(=O)C(C)(C)[C@@H]5CC[C@]43C)[C@@H]2C1` [Compound 63222, (4aR,6aR,6bR,8aS,12aS,12bR,14aR,14bR)-8a-(cyanomethylamino)-4,4,6a,6b,11,11,14b-heptamethyl-3,13-dioxo-3,4,4a,5,6,6a,6b,7,8,8a,9,10,11,12,12a,12b,13,14,14a,14b-icosahydropicene-2-carbonitrile], the half-inhibitory concentration (IC50) was about 45 nM in assay [1] and over 200 nM with RAW264.7 macrophages.

Consider `CC1(C)CC[C@]2(NC(=O)C3CC3)CC[C@]3(C)[C@H](C(=O)C[C@@H]4[C@@]5(C)C=C(C#N)C(=O)C(C)(C)[C@@H]5CC[C@]43C)[C@@H]2C1` [Compound 63236, N-((4aS,6aR,6bR,8aR,12aR,12bR,14aR,14bS)-11-cyano-2,2,6a,6b,9,9,12a-heptamethyl-10,14-dioxo-1,2,3,4,4a,5,6,6a,6b,7,8,8a,9,10,12a,12b,13,14,14a,14b-icosahydropicen-4a-yl)cyclopropanecarboxamide], for which the concentration for half-maximal inhibition (IC50) was about 120 nM in assay [1] and over 200 nM in the assay on RAW264.7 macrophages.

In the case of `CCN[C@]12CCC(C)(C)C[C@H]1[C@H]1C(=O)C[C@@H]3[C@@]4(C)C=C(C#N)C(=O)C(C)(C)[C@@H]4CC[C@@]3(C)[C@]1(C)CC2` [Compound 63238, (4aR,6aR,6bR,8aS,12aS,12bR,14aR,14bR)-8a-(ethylamino)-4,4,6a,6b,11,11,14b-heptamethyl-3,13-dioxo-3,4,4a,5,6,6a,6b,7,8,8a,9,10,11,12,12a,12b,13,14,14a,14b-icosahydropicene-2-carbonitrile], the IC50 is about 120 nM in assay [1] and over 200 nM in the assay with RAW264.7 macrophages.

For the molecule `CC1(C)CC[C@]2(NC(=O)Cc3ccccc3)CC[C@]3(C)[C@H](C(=O)C=C4[C@@]5(C)C=C(C#N)C(=O)C(C)(C)[C@@H]5CC[C@]43C)[C@@H]2C1` [Compound 63244, N-((4aS,6aR,6bS,8aR,12aS,14aR,14bS)-11-cyano-2,2,6a,6b,9,9,12a-heptamethyl-10,14-dioxo-1,2,3,4,4a,5,6,6a,6b,7,8,8a,9,10,12a,14,14a,14b-octadecahydropicen-4a-yl)-2-phenylacetamide], the IC50 in assay [1] amounted to 10 nM; in the assay with RAW264.7 macrophages, 200 nM.

For the molecule `CN(C)[C@]12CCC(C)(C)C[C@H]1[C@H]1C(=O)C=C3[C@@]4(C)C=C(C#N)C(=O)C(C)(C)[C@@H]4CC[C@@]3(C)[C@]1(C)CC2` [Compound 63245, (4aR,6aS,6bR,8aS,12aS,12bR,14bS)-8a-(dimethylamino)-4,4,6a,6b,11,11,14b-heptamethyl-3,13-dioxo-3,4,4a,5,6,6a,6b,7,8,8a,9,10,11,12,12a,12b,13,14b-octadecahydropicene-2-carbonitrile], the IC50 in assay [1] is 33 nM; in the assay with RAW264.7 macrophages, over 200 nM.

On to `C#CC(=O)N[C@]12CCC(C)(C)C[C@H]1[C@H]1C(=O)C=C3[C@@]4(C)C=C(C#N)C(=O)C(C)(C)[C@@H]4CC[C@@]3(C)[C@]1(C)CC2` [Compound 63246, N-((4aS,6aR,6bS,8aR,12aS,14aR,14bS)-11-cyano-2,2,6a,6b,9,9,12a-heptamethyl-10,14-dioxo-1,2,3,4,4a,5,6,6a,6b,7,8,8a,9,10,12a,14,14a,14b-octadecahydropicen-4a-yl)propiolamide], for which the TrxR1 induction in the assay with TrxR1 (400 nM) is listed as 66% of induction observed for RTA 402. The figures for the IC50 (in assay [1]; in the assay on RAW264.7 macrophages) were about 3 nM and over 200 nM, respectively. Further, the HO-1 induction in the assay on HO-1 (400 nM) is listed as 25% of induction observed for RTA 402. In addition, in the assay with γ-GCS (400 nM), the γ-GCS induction is 77% of induction observed for RTA 402. Moreover, in the assay with iNOS, the inhibition at 0.3 µM was over 90%.

In the case of `CC1(C)CC[C@]2(NC(=O)OC3CCOC3)CC[C@]3(C)[C@H](C(=O)C[C@@H]4[C@@]5(C)C=C(C#N)C(=O)C(C)(C)[C@@H]5CC[C@]43C)[C@@H]2C1` (stereo partly drawn) [Compound 63265, tetrahydrofuran-3-yl(4aS,6aR,6bR,8aR,12aR,12bR,14aR,14bS)-11-cyano-2,2,6a,6b,9,9,12a-heptamethyl-10,14-dioxo-1,2,3,4,4a,5,6,6a,6b,7,8,8a,9,10,12a,12b,13,14,14a,14b-icosahydropicen-4a-ylcarbamate], the 50% inhibitory concentration (IC50) in assay [1] was about 100 nM; in the assay with RAW264.7 macrophages it was over 200 nM.
